“And” between values parts separate entries of the source, which are not always exact repeats. Equal entries are not always repeated. Where two headings read alike, the source gives them in different places. Marks after values point to notes of the source that are not given here.
Key:
Assay type in all cases: in vivo
[1] = system: anesthetized normotensive dogs; test: renal dopamine-like activity by infusion in anesthetized normotensive dogs; details: for ED15: Canis lupus familiaris, iv, infusion, anesthetized normotensive dogs
Method: In the test procedure for determining renal dopamine-like activity by infusion in anesthetized normotensive dogs, 6 - chloro - 7,8 - dihydroxy - 1 - (p - hydroxyphenyl) - 2,3,4,5 - tetrahydro - 1 H - 3 - benzazepine has an ED15 of 0.3 µg/kg. The details of the test procedure are presented in the literature references mentioned above. The tri-O-acetyl derivative of this compound has an ED1. of 25 µg/kg, and the tri-O-isobutyryl derivative has an ED15 of 16 µg/kg. Other compounds of Formula I having renal dopaminergic activity can be used by comparing their activity in the anesthetized dog protocol with that of the above specifically named compound in preparing hypotensively effective and non-toxic dosage regimens. For example, referring to compounds of the Formula I in which R is H: […]
The renal dopaminergic ED1. values given above for the infused anesthetized dog are useful to assess quantitative and qualitative biological properties of the 1 - hydroxyphenyl - 7,8 - dihydroxy - 2,3,4,5 - tetrahydro - 1 H - 3 - benzazepine compounds of Formula I. These compounds are preferably given by oral administration. They are rapidly absorbed from the gastrointestinal tract, and have a relatively short half life in vivo. Therefore, the renal dopaminergic agent must be matched with conventional dosage regimens of the diuretic agents considering the pharmacokinetic properties of each active component. This may be accomplished by combining the renal dopaminergic agent with a diuretic in standard dosage unit forms for administration from 2-6 times daily. This would be most suitable when the diuretic agent is of a short acting nature and conventionally multiple daily doses are used to give the desired maintenanance level.

[2] = system: phosphate mannitol infused dog; test: renal clearance study in the phosphate-mannitol infused dog; details: change from control, triamterene 10 mg. p.o., benzazepine 2.5 mg. p.o.
From the text: Mannitol itself has some proximal natriuretic effect which tends to screen any synergistic effect of the combination. […] In the parameters presented, the control figures are actual values. Phase II, III and IV are changes from control.

[3] = system: glucose-infused unanesthetized dog; test: renal clearance study in the glucose-infused unanesthetized dog; details: hydrochlorothiazide 2.5 mg/kg i.v. then 3.0 mg/kg/hr infusion
Method: In the glucose-infused unanesthetized dog, 6 - chloro - 7,8 - dihydroxy - 1 - (p - hydroxyphenyl) 2,3,4,5 - tetrahydro - 1 H - 3 - benzazepine methyl sulfonate was given at the peak time of natriureses established by a maximally effective dose of hydrochlorothiazide.
All dogs were given an oral water load of 3% of body weight of tap water thirty minutes prior to initiation of the experiment. Using a constant infusion pump the dogs were infused intravenously at 3 ml/min. throughout the course of the experiment, with a 5% dextrose solution containing 3.0 mg/kg/hr of hydrochlorothiazide (HCTZ). Glomerular filtration rate was determined by the clearance of creatinine and effective renal plasma flow by the clearance of p-aminohippuric acid (PAH). […] The solution also contained 0.02% ascorbic acid. Suitable plasma levels of creatinine and p-aminohippuric acid were obtained by a twenty minute infusion of this solution to obtain equilibrium prior to starting of the initial urine collection. […] 1.5 ml/kg of a 1% creatinine solution in saline was also injected intravenously fifteen minutes prior to the start of the collection of urine. Replicate urine collections were obtained at ten minute intervals throughout the experiment. The bladder was emptied by an indwelling catheter and complete urine collections were measured by rinsing the bladder with 10 ml of water at the end of each collection interval, followed by an air wash-out. Venous blood samples were drawn from an indwelling catheter at the mid-point of each clearance period.
Plasma and urine osmolalities were determined by freezing point depression on freshly obtained samples. Urine volume and pH were recorded at the time of collection. Plasma and urine samples were stored frozen after collection, until analyzed. Analysis for sodium and potassium were made using the flame. photometer, and for chloride, creatinine, and p-aminohippuric acid, by colorimeter, using standard methodologies. These analyses were made simultaneously on each sample. Peak intensities were identified electronically, recorded by "on-line" teletype, stored and subsequently analyzed mathematically by time-shared computer against appropriate standards. Data were computed from linear least square regression lines and quality control standards were analyzed simultaneously to evaluate system reproducibility and reliability.
In the experiments where hydrochlorothiazide alone was given, twelve clearances were obtained. […] In the combination study the benzazepine was given by stomach tube at 5.0 mg/kg (base) after Ca, The compound was solubilized in water with a small amount of sugar syrup to prevent or minimize emesis. Clearances C7-C'2 (treatment) as in the hydrochlorothiazide alone tests, were taken with no wait between C6 and C7. Five dogs were used with both hydrochlorothiazide and with the combination.

[4] = system: glucose-infused unanesthetized dog; test: as above; details: single dose, benzazepine salt alone, glucose-infused dog protocol
[5] = individual dog, difference between averages of C1—C6 and C7—C12

Q: `Oc1cccc(C2CNCCc3c2cc(O)c(O)c3Cl)c1` (centres unmarked) [A, 6 - chloro - 7,8 - dihydroxy - 1 - (3 - hydroxyphenyl) - 2,3,4,5 - tetrahydro - 1 H - 3 - benzazepine] was tested. Which ED15 ([1]; read-out: ED15) did it give?
A: The ED15 was 0.35 µg/kg.

Q: Which renal dopaminergic activity ([1]; 0.3 ug/kg/min infusion rate) does the source give for `C=CCN1CCc2c(cc(O)c(O)c2Cl)C(c2ccc(O)cc2)C1` (centres unmarked) here?
A: The renal dopaminergic activity was “demonstrated activity”.

Q: Which ED15 ([1]; read-out: ED15) does the source give for `Oc1ccc(C2CNCCc3c(Cl)c(O)c(O)c(Cl)c32)cc1` (centres unmarked) [D, 6,9 - dichloro - 7,8 - dihydroxy - 1 - (4 - hydroxyphenyl) - 2,3,4,5 - tetrahydro - 1H - 3 - benzazepine] here?
A: The ED15 was 620 µg/kg.

Q: `Oc1ccc(C2CNCCc3c2cc(O)c(O)c3Cl)cc1` (centres unmarked) [6 - chloro - 7,8 - dihydroxy - 1 - (p - hydroxyphenyl) - 2,3,4,5 - tetrahydro - 1 H - 3 - benzazepine] was tested. Which ED15 ([1]; read-out: ED15) did it give?
A: The ED15 was 0.3 µg/kg.

Q: What about the “Glomerular Filtration Rate” value ([2]; Phase II) of the same compound?
A: The value was 1.

Q: What about the “Potassium Execretion” value ([2]; Phase II) of the same compound?
A: The value was −0.93**.

Q: And the “Glomerular Filtration Rate” value ([2]; Phase III)?
A: Its value is −2.

Q: And the “Potassium Execretion” value ([2]; Phase III)?
A: Its value is −1.59.

Q: And the “Glomerular Filtration Rate” value ([2]; Phase IV)?
A: The value was −2.

Q: And the “Potassium Execretion” value ([2]; Phase IV)?
A: The value was 2.02.

Q: Which results are given for `NS(=O)(=O)c1cc2c(cc1Cl)NCNS2(=O)=O` [Hydrochlorothiazide, hydrochlorothiazide]?
A: Filtration Fraction Δ ([3]; Average of five dogs): −.012; Glomerular Filtration Rate (GFR) Δ % Change ([3]; Average of five dogs): −2.4%; Ranal Plasma Flow (RPF) Δ % Change ([3]; Average of five dogs): +2.6%; Δ % Na^+ Excreted ([3]; Average of five dogs): −0.82%; Filtration Fraction Δ [3, 5]: −.01 and 0 and +.01 and −.03 (2×); Glomerular Filtration Rate (GFR) Δ % Change [3, 5]: −6% and +6% and −7% and 0% and −5%; Ranal Plasma Flow (RPF) Δ % Change [3, 5]: −1% and +6% and −10% and +7% and +11%; Δ % Na^+ Excreted [3, 5]: −1.1% (2×) and −0.8% and −0.5% and −0.6%

Q: `Nc1nc(N)c2nc(-c3ccccc3)c(N)nc2n1` [Triamterene, triamterene] was tested. Which “Glomerular Filtration Rate” value ([2]; Phase II) did it give?
A: Its value is −3.

Q: What about the “Potassium Execretion” value ([2]; Phase II) of the same compound?
A: Its value is −3.65.

Q: What about the “Glomerular Filtration Rate” value ([2]; Phase III) of the same compound?
A: The value was −15.

Q: What about the “Potassium Execretion” value ([2]; Phase III) of the same compound?
A: Its value is −5.44.

Q: And the “Glomerular Filtration Rate” value ([2]; Phase IV)?
A: The value was −15**.

Q: And the “Potassium Execretion” value ([2]; Phase IV)?
A: The value was −5.61.

Q: Which diuretic effect [4] does the source give for `CS(=O)(=O)O.Oc1ccc(C2CNCCc3c2cc(O)c(O)c3Cl)cc1` (centres unmarked) [6 - Chloro - 7,8 - dihydroxy - 1 - (4 - hydroxyphenyl) - 2,3,4,5 - tetrahydro - 1H - 3 - benzazepine methyl sulphonic acid salt] here?
A: The diuretic effect was “no diuretic effect”.

Q: `CC(C)C(=O)Oc1ccc(C2CNCCc3c2cc(OC(=O)C(C)C)c(OC(=O)C(C)C)c3Cl)cc1` (centres unmarked) [tri-O-isobutyryl derivative] was tested. Which ED15 ([1]; read-out: ED15) did it give?
A: The ED15 was 16 µg/kg.

Q: `CC(=O)Oc1ccc(C2CNCCc3c2cc(OC(C)=O)c(OC(C)=O)c3Cl)cc1` (centres unmarked) [tri-O-acetyl derivative, 6 - chloro - 7,8 - diacetoxy - 1 - (4 - acetoxyphenyl) 2,3,4,5 - tetrahydro - 1H - 3 - benzazepine] was tested. Which ED15 ([1]; read-out: ED1.) did it give?
A: Its ED15 is 25 µg/kg.

Q: Which ED15 ([1]; read-out: ED15) does the source give for `Oc1ccc(C2CNCCc3c2cc(O)c(O)c3Br)cc1` (centres unmarked) [B] here?
A: Its ED15 is 5 µg/kg.

Q: Which ED15 ([1]; read-out: ED15) does the source give for `COC(=O)c1c(O)c(O)cc2c1CCNCC2c1ccc(O)cc1` (centres unmarked) [G, 6 - carbomethoxy - 7,8 - dihydroxy - 1 - (4 - hydroxyphenyl) - 2,3,4,5 - tetrahydro - 1H - 3 - benzazepine] here?
A: Its ED15 is 2.3 µg/kg.

Q: With `Cc1c(O)c(O)cc2c1CCNCC2c1ccc(O)cc1` (centres unmarked) [C, 6 - methyl - 7,8 - dihydroxy - 1 - (4 - hydroxyphenyl) - 2,3,4,5 - tetrahydro - 1 H - 3 - benzazepine] as the compound, how does the ED15 ([1]; read-out: ED15) read?
A: The ED15 was 2.8 µg/kg.

Q: `Oc1ccc(C2CNCCc3c2cc(O)c(O)c3I)cc1` (centres unmarked) [F] was tested. Which ED15 ([1]; read-out: ED15) did it give?
A: The ED15 was 4.2 µg/kg.

Q: How did the ED15 ([1]; read-out: ED15) turn out when `Cc1c(O)c(O)c(Cl)c2c1CCNCC2c1ccc(O)cc1` (centres unmarked) [E] was run?
A: The ED15 was 30 µg/kg.

Source: EP0022330B1, “Synergistic antihypertensive compositions” (SMITHKLINE BECKMAN CORPORATION, priority 1979, dated 1981)
